Data taken from the supplement of paper PMC10307832.

Assays:
Test in all cases: relative viability (nuclei count vs DMSO), 5 days (fraction); higher = more cells survive
A549 = test system: A549
Method in brief: (§1)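 The day after seeding in 1536-well plates, lung cancer cell lines were treated by pin tool with a single drug, or with a fixed anchor-drug dose together with five library-drug doses (not always all listed) in √10 steps. After 5 days, a combined fix-and-stain solution (final 0.05% Triton X-100, 1% formaldehyde, 1 ug/ml Hoechst) was added. Nuclei counted on 4× images gave relative viability as treated counts over vehicle counts, reported as the median of duplicate plates.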

ABC-1 = test system: ABC-1
Method in brief: as §1

COR-L23 = test system: COR-L23
Method in brief: as §1

Calu-6 = test system: Calu-6
Method in brief: as §1

ChaGo-K-1 = test system: ChaGo-K-1
Method in brief: as §1

EBC-1 = test system: EBC-1
Method in brief: as §1

IA-LM = test system: IA-LM
Method in brief: as §1

NCI-H1299 = test system: NCI-H1299
Method in brief: as §1

NCI-H1437 = test system: NCI-H1437
Method in brief: as §1

NCI-H1623 = test system: NCI-H1623
Method in brief: as §1

NCI-H1651 = test system: NCI-H1651
Method in brief: as §1

NCI-H1703 = test system: NCI-H1703
Method in brief: as §1

SK-MES-1 = test system: SK-MES-1
Method in brief: as §1

SW 1573 = test system: SW 1573
Method in brief: as §1

O=c1cc(N2CCOCC2)oc2c(-c3cccc4c3sc3ccccc34)cccc12 + COc1cc2c(Oc3ccc(NC(=O)C4(C(=O)Nc5ccc(F)cc5)CC4)cc3F)ccnc2cc1OCCCN1CCOCC1 [Foretinib] (partner 0.25 µM)
relative viability (A549; first compound 0.01 µM): 0.936
relative viability (A549; first compound 0.03162 µM): 1
relative viability (A549; first compound 0.1 µM): 0.99
relative viability (A549; first compound 0.3162 µM): 0.912
relative viability (A549; first compound 1 µM): 0.994
relative viability (ABC-1; first compound 0.01 µM): 1.03
relative viability (ABC-1; first compound 0.03162 µM): 0.943
relative viability (ABC-1; first compound 0.1 µM): 1.48
relative viability (ABC-1; first compound 0.3162 µM): 1.11
relative viability (ABC-1; first compound 1 µM): 1.02
relative viability (COR-L23; first compound 0.01 µM): 1.03
relative viability (COR-L23; first compound 0.03162 µM): 0.996
relative viability (COR-L23; first compound 0.1 µM): 0.954
relative viability (COR-L23; first compound 0.3162 µM): 0.923
relative viability (COR-L23; first compound 1 µM): 1.06
relative viability (Calu-6; first compound 0.01 µM): 0.932
relative viability (Calu-6; first compound 0.03162 µM): 0.895
relative viability (Calu-6; first compound 0.1 µM): 0.891
relative viability (Calu-6; first compound 0.3162 µM): 0.888
relative viability (Calu-6; first compound 1 µM): 0.839
relative viability (ChaGo-K-1; first compound 0.01 µM): 0.901
relative viability (ChaGo-K-1; first compound 0.03162 µM): 1.01
relative viability (ChaGo-K-1; first compound 0.1 µM): 0.948
relative viability (ChaGo-K-1; first compound 0.3162 µM): 0.869
relative viability (ChaGo-K-1; first compound 1 µM): 0.96
relative viability (EBC-1; first compound 0.01 µM): 0.0963
relative viability (EBC-1; first compound 0.03162 µM): 0.0939
relative viability (EBC-1; first compound 0.1 µM): 0.0965
relative viability (EBC-1; first compound 0.3162 µM): 0.128
relative viability (EBC-1; first compound 1 µM): 0.102
relative viability (IA-LM; first compound 0.01 µM): 1.1
relative viability (IA-LM; first compound 0.03162 µM): 1.11
relative viability (IA-LM; first compound 0.1 µM): 1.23
relative viability (IA-LM; first compound 0.3162 µM): 1.06
relative viability (IA-LM; first compound 1 µM): 1.25
relative viability (NCI-H1299; first compound 0.01 µM): 1.04
relative viability (NCI-H1299; first compound 0.03162 µM): 1.11
relative viability (NCI-H1299; first compound 0.1 µM): 1.08
relative viability (NCI-H1299; first compound 0.3162 µM): 1.13
relative viability (NCI-H1299; first compound 1 µM): 1.04
relative viability (NCI-H1437; first compound 0.01 µM): 0.877
relative viability (NCI-H1437; first compound 0.03162 µM): 1.28
relative viability (NCI-H1437; first compound 0.1 µM): 1.26
relative viability (NCI-H1437; first compound 0.3162 µM): 1.25
relative viability (NCI-H1437; first compound 1 µM): 1.23
relative viability (NCI-H1623; first compound 0.01 µM): 0.84
relative viability (NCI-H1623; first compound 0.03162 µM): 0.9
relative viability (NCI-H1623; first compound 0.1 µM): 0.559
relative viability (NCI-H1623; first compound 0.3162 µM): 0.849
relative viability (NCI-H1623; first compound 1 µM): 0.862
relative viability (NCI-H1651; first compound 0.01 µM): 0.775
relative viability (NCI-H1651; first compound 0.03162 µM): 0.766
relative viability (NCI-H1651; first compound 0.1 µM): 0.958
relative viability (NCI-H1651; first compound 0.3162 µM): 0.796
relative viability (NCI-H1651; first compound 1 µM): 0.624
relative viability (NCI-H1703; first compound 0.01 µM): 0.333
relative viability (NCI-H1703; first compound 0.03162 µM): 0.314
relative viability (NCI-H1703; first compound 0.1 µM): 0.352
relative viability (NCI-H1703; first compound 0.3162 µM): 0.371
relative viability (NCI-H1703; first compound 1 µM): 0.296
relative viability (SK-MES-1; first compound 0.01 µM): 1.13
relative viability (SK-MES-1; first compound 0.03162 µM): 0.771
relative viability (SK-MES-1; first compound 0.1 µM): 0.847
relative viability (SK-MES-1; first compound 0.3162 µM): 0.968
relative viability (SK-MES-1; first compound 1 µM): 0.91
relative viability (SW 1573; first compound 0.01 µM): 0.537
relative viability (SW 1573; first compound 0.03162 µM): 0.982
relative viability (SW 1573; first compound 0.1 µM): 0.87
relative viability (SW 1573; first compound 0.3162 µM): 0.87
relative viability (SW 1573; first compound 1 µM): 1.07

O=c1cc(N2CCOCC2)oc2c(-c3cccc4c3sc3ccccc34)cccc12 + CCNC(=O)c1noc(-c2cc(C(C)C)c(O)cc2O)c1-c1ccc(CN2CCOCC2)cc1 [Luminespib] (partner 0.01 µM)
relative viability (ABC-1; first compound 0.01 µM): 0.458
relative viability (ABC-1; first compound 0.03162 µM): 0.452
relative viability (ABC-1; first compound 0.1 µM): 0.796
relative viability (ABC-1; first compound 0.3162 µM): 0.501
relative viability (ABC-1; first compound 1 µM): 0.53
relative viability (COR-L23; first compound 0.01 µM): 0.763
relative viability (COR-L23; first compound 0.03162 µM): 0.654
relative viability (COR-L23; first compound 0.1 µM): 0.724
relative viability (COR-L23; first compound 0.3162 µM): 0.608
relative viability (COR-L23; first compound 1 µM): 0.779
relative viability (ChaGo-K-1; first compound 0.01 µM): 0.689
relative viability (ChaGo-K-1; first compound 0.03162 µM): 0.682
relative viability (ChaGo-K-1; first compound 0.1 µM): 0.714
relative viability (ChaGo-K-1; first compound 0.3162 µM): 0.582
relative viability (ChaGo-K-1; first compound 1 µM): 0.689
relative viability (NCI-H1437; first compound 0.01 µM): 0.835
relative viability (NCI-H1437; first compound 0.03162 µM): 1.03
relative viability (NCI-H1437; first compound 0.1 µM): 1.1
relative viability (NCI-H1437; first compound 0.3162 µM): 1.08
relative viability (NCI-H1437; first compound 1 µM): 1.04
relative viability (NCI-H1623; first compound 0.01 µM): 0.383
relative viability (NCI-H1623; first compound 0.03162 µM): 0.521
relative viability (NCI-H1623; first compound 0.1 µM): 0.495
relative viability (NCI-H1623; first compound 0.3162 µM): 0.475
relative viability (NCI-H1623; first compound 1 µM): 0.409
relative viability (NCI-H1651; first compound 0.01 µM): 0.777
relative viability (NCI-H1651; first compound 0.03162 µM): 0.736
relative viability (NCI-H1651; first compound 0.1 µM): 0.824
relative viability (NCI-H1651; first compound 0.3162 µM): 0.712
relative viability (NCI-H1651; first compound 1 µM): 0.807
relative viability (SK-MES-1; first compound 0.01 µM): 0.712
relative viability (SK-MES-1; first compound 0.03162 µM): 0.767
relative viability (SK-MES-1; first compound 0.1 µM): 0.736
relative viability (SK-MES-1; first compound 0.3162 µM): 0.661
relative viability (SK-MES-1; first compound 1 µM): 0.741
relative viability (SW 1573; first compound 0.01 µM): 0.419
relative viability (SW 1573; first compound 0.03162 µM): 0.205
relative viability (SW 1573; first compound 0.1 µM): 0.211
relative viability (SW 1573; first compound 0.3162 µM): 0.735
relative viability (SW 1573; first compound 1 µM): 0.218

COc1nc(C)cnc1NS(=O)(=O)c1cccnc1-c1ccc(-c2nnco2)cc1 [Zibotentan] + N=C(N)NC(=N)NCCc1ccccc1 [Phenformin] (partner 250 µM)
relative viability (A549; first compound 0.08 µM): 0.184
relative viability (A549; first compound 0.253 µM): 0.136
relative viability (A549; first compound 0.8 µM): 0.183
relative viability (A549; first compound 2.53 µM): 0.135
relative viability (ABC-1; first compound 0.08 µM): 0.236
relative viability (ABC-1; first compound 0.253 µM): 0.235
relative viability (ABC-1; first compound 0.8 µM): 0.252
relative viability (ABC-1; first compound 2.53 µM): 0.227
relative viability (COR-L23; first compound 0.08 µM): 0.445
relative viability (COR-L23; first compound 0.253 µM): 0.376
relative viability (COR-L23; first compound 0.8 µM): 0.506
relative viability (COR-L23; first compound 2.53 µM): 0.416
relative viability (ChaGo-K-1; first compound 0.08 µM): 0.563
relative viability (ChaGo-K-1; first compound 0.253 µM): 0.42
relative viability (ChaGo-K-1; first compound 0.8 µM): 0.469
relative viability (ChaGo-K-1; first compound 2.53 µM): 0.543
relative viability (NCI-H1437; first compound 0.08 µM): 0.308
relative viability (NCI-H1437; first compound 0.253 µM): 0.297
relative viability (NCI-H1437; first compound 0.8 µM): 0.297
relative viability (NCI-H1437; first compound 2.53 µM): 0.347
relative viability (NCI-H1623; first compound 0.08 µM): 0.592
relative viability (NCI-H1623; first compound 0.8 µM): 0.626
relative viability (NCI-H1623; first compound 2.53 µM): 0.564
relative viability (NCI-H1651; first compound 0.08 µM): 0.38
relative viability (NCI-H1651; first compound 0.253 µM): 0.264
relative viability (NCI-H1651; first compound 0.8 µM): 0.294
relative viability (NCI-H1651; first compound 2.53 µM): 0.339
relative viability (SK-MES-1; first compound 0.08 µM): 0.714
relative viability (SK-MES-1; first compound 0.253 µM): 0.612
relative viability (SK-MES-1; first compound 0.8 µM): 0.678
relative viability (SK-MES-1; first compound 2.53 µM): 0.692
relative viability (SW 1573; first compound 0.08 µM): 0.397
relative viability (SW 1573; first compound 0.8 µM): 0.359
relative viability (SW 1573; first compound 2.53 µM): 0.334
